Results as given in a melting point compilation (Tetko et al.; mined from patent text by program, amines drawn as free bases though some values may be those of a salt).

CC(C)CC1NCC(C)(C)NC1=O (stereo not given) showed a melting point of 140 to 144 °C. CC(=O)Nc1c(C#N)c(Cl)c(C#N)n1C showed a melting point of 180 to 182 °C. Work on O=C1CCC(N2Cc3cc(CNC(=O)Nc4cccc5ccccc45)ccc3C2=O)C(=O)N1 (stereo not given) yielded a melting point of 250 to 252 °C. Compound Cc1c2ccccc2c(-c2ccc(OS(C)(=O)=O)cc2)c2c1sc1ccccc12 has a melting point of 172 to 173 °C. In the case of COc1cc(OC)cc(SSc2cc(OC)cc(OC)c2)c1, the melting point was 152 to 160 °C. Compound O=C1OCCN1CCN1CCN(C2Cc3cc(Br)ccc3Sc3ccccc32)CC1 (stereo not given) has a melting point of 170 to 172 °C. For Cc1ccc(S(=O)(=O)OCC2Cc3cccc(Nc4ccc(Cl)cc4)c3O2)cc1 (stereo not given), the melting point was 132 to 134 °C. Work on CC(CCCC(=NO)C(=O)O)(c1ccc(OCc2ccc3ccccc3n2)cc1)c1ccc(OCc2ccc3ccccc3n2)cc1 yielded a melting point of 78 to 80 °C. With CC(C(=O)O)c1ccc2cc(O)ccc2c1 (stereo not given) the melting point was 186 to 188 °C. With CN(C)C(=O)ON=C1n2ccnc2SC1(C)C the melting point was 99 to 102 °C. CCOC(=O)C1=C(COCCO)Nc2ccnc(OC(C)C)c2C1c1ccccc1C(F)(F)F (stereo not given) gave a melting point of 109 to 112 °C. Compound Cc1c(C(=O)Cl)cccc1S(=O)(=O)CCCl has a melting point of 67 to 70 °C. In the case of CC(=O)NCCc1ccc(C=CC(=O)O)cc1, the melting point was 206 to 208 °C. Compound CC(O)c1ccc(-c2ccc([N+](=O)[O-])cc2)o1 (stereo not given) has a melting point of 69.5 to 70.5 °C. With CCCCNc1cccc(O)c1 the melting point was 35 °C. Work on CCCNC(=O)C(O)C1c2ccccc2C(=O)N1c1ccc2ccc(Br)nc2n1 (stereo not given) yielded a melting point of 174 °C. Work on CCc1cn2ccccc2c1S(=O)(=O)c1cc(C)c(OS(=O)(=O)c2ccc(C)cc2)c(C)c1 yielded a melting point of 161 °C. Work on COc1ccc2nc(-c3csc4ccccc34)[nH]c(=O)c2c1 yielded a melting point of 289 to 290 °C. CC(=O)c1csc(C(=O)C2C(=O)N(C(N)=O)c3ccc(Cl)cc32)c1 (stereo not given) gave a melting point of 230 to 233 °C. Compound CCCCOc1ccc2c(=O)c(-c3nnnn3C)cn(C)c2c1 has a melting point of 187 to 190 °C. O=C(OCc1ccccc1)c1ccc(OC(=O)c2ccc(C(=O)Oc3ccc(C(=O)OCc4ccccc4)cc3)cc2)cc1 gave a melting point of 186 to 187 °C. Oc1ccc(CN(Cc2ccc(O)c3ncccc23)Cc2ccc(O)c3ncccc23)c2cccnc12 showed a melting point of 175 to 178 °C. With CC(CCCC(C)(C)O)C1CCC2C3CC=C4CCCC(O)C4(C)C3CCC12C (stereo not given) the melting point was 127 to 128 °C. With Cn1cc(-c2ccc(C(=O)N3Cc4cccn4Cc4ccccc43)cn2)cn1 the melting point was 173 to 175 °C. CC(=O)N[C@@H]1[C@@H](CCO)CC(C(=O)O)=C[C@H]1OC(C)C showed a melting point of 114 to 115 °C. Compound N#Cc1ccc(NC(=O)NC(=O)c2ccccc2Cl)c(Cl)c1Cl has a melting point of 278 to 282 °C. Compound COc1ccc(-c2cc3cc(F)c(F)cc3[nH]2)cc1NCc1cccc([N+](=O)[O-])c1 has a melting point of 212 to 214 °C. For CCc1cc(NC(=O)C(CS)Cc2ccccc2)cc(C(=O)O)c1 (stereo not given), the melting point was 159 to 160 °C. CC(=O)N(CC1CC1)c1cccc(-c2ccc3nnc(C)n3n2)c1 gave a melting point of 118 to 121 °C. Work on C=CCC(CO)C(O)c1cccnc1 (stereo not given) yielded a melting point of 112 to 113 °C. With COc1cc(Cc2cnc(N)nc2N)cc2c(C)cc(C)nc12 the melting point was 289 to 290 °C. Work on CN(C)c1cc2c(cc1Cl)NC(=O)CC(c1cccc(-c3csc(N)n3)c1)=N2 yielded a melting point of 247 to 248 °C. For CC(C)(C)C(NC(=O)c1ccc(Cl)cc1)NC(=NC#N)Nc1cc(F)cc(F)c1 (stereo not given), the melting point was 196 to 198 °C. With CC(C)NC(=O)c1cccc(I)c1C(=O)Nc1ccc(OCC(F)(F)F)nc1 the melting point was 200 to 203 °C. Work on COc1nc2cc(F)cc(C)c2nc1OC yielded a melting point of 107 to 109 °C. In the case of CCCn1nc(C(C)C)c(C(=O)OCOC(C)=O)c1Cc1ccc(-c2ccccc2-c2nnn(C(c3ccccc3)(c3ccccc3)c3ccccc3)n2)cc1, the melting point was 124 to 128 °C. Oc1ccc(-c2nc3ccc(O)cc3o2)cc1 showed a melting point greater than 300 °C. Compound O=C(Oc1ccccc1)N1CCC2(CC1)SC(c1ccc(F)cc1)c1ccccc12 (stereo not given) has a melting point of 200 to 201 °C. With COc1cccc(C#CC#Cc2cc(C(F)(F)F)ccc2C(F)(F)F)c1 the melting point was 37 °C. O=[N+]([O-])c1ccc(SCl)c(C(Cl)(Cl)Cl)c1 showed a melting point of 56 to 57 °C. Compound CCOC(=O)CCc1nc2cc3c(cc2[nH]1)NC(=O)C3(C)C has a melting point of 194 to 196 °C. For O=C(CCNc1c(C(=O)O)[nH]c2cc(Cl)ccc12)c1ccc(F)cc1, the melting point was 248 to 250 °C. CC(C)C[C@@H](OS(=O)(=O)c1ccc([N+](=O)[O-])cc1)C(=O)O gave a melting point of 60 to 62 °C. For O=C1NC(=O)C(=Cc2ccc(N3CCC(NC[C@H](O)COc4ccccc4)CC3)cc2)S1, the melting point was 208 to 210 °C. Compound CCNC(=O)c1ccc(OCC(O)c2ccc3c(c2)C(C)(C)CCC3(C)C)cc1O (stereo not given) has a melting point of 65 to 70 °C. Cc1nc(N2CCN(Cc3ccccc3)C2=O)sc1C(=O)NCc1ccccc1F gave a melting point of 167 to 168 °C. O=C1CN2CCOC2(c2ccccc2Cl)c2cc([N+](=O)[O-])ccc2N1 (stereo not given) showed a melting point of 201 to 203 °C. CCOC(=O)c1c(C)nc2c(nc(C)n2C)c1OCC gave a melting point of 85 to 87 °C. Work on Cc1cccc(Nc2nc(N)ncc2S(=O)(=O)NC(C)(C)C)c1 yielded a melting point of 174 to 178 °C. CSCCC(S)C(=O)NC1(C(=O)NC(Cc2ccc(-c3ccsc3)nc2)C(=O)O)CCCC1 (stereo not given) gave a melting point of 170 to 172 °C. For C[C@H](NC(=O)c1c[nH]c2ncc(C3CC3)nc12)C(C)(C)CS(C)(=O)=O, the melting point was 232 to 234 °C. CCOC(=O)c1ncn(-c2nccs2)c1Cl showed a melting point of 128 to 131 °C. For O=c1[nH]c2ccccc2c(=O)c2cc(Cl)ccc12, the melting point was 290 to 295 °C. Work on CCn1nc(N)nc1NCCCOc1cccc(CN(C)C)c1 yielded a melting point of 104 to 105 °C. Cc1oc(-c2ccccc2)nc1COc1ccc(COc2ccc3ccccc3c2CC(=O)O)cc1 gave a melting point of 187 to 188 °C. With CCOC(=O)c1c(CC)nn2ccc3c(c12)CCO3 the melting point was 110 to 111 °C. For O=P1(O)Oc2ccccc2-c2cc(C(F)(F)F)ccc21, the melting point was 240 °C. CC(=O)Nc1nc(C=O)c(Cc2ccccc2)s1 showed a melting point of 191 to 192 °C. With C#Cc1ccc(C)cc1CC(=O)O the melting point was 98 to 101 °C. Work on Cc1c(CCN(C(=O)C(F)(F)F)c2cc3ccccc3n2C)ncn1S(=O)(=O)N(C)C yielded a melting point of 156 to 158 °C. CN(C(N)=O)C1CCCc2ccccc21 (stereo not given) showed a melting point of 160 to 163 °C. CCCOc1cc(C#N)ccc1C(C)=O gave a melting point of 99.5 to 100 °C. CC(=NO)c1ncc(C)nc1C showed a melting point of 85 to 89 °C. With Cc1ccc(SCc2ncon2)cc1 the melting point was 53 °C. With COC(=O)c1cccc2c(C#N)c[nH]c12 the melting point was 212 to 214 °C. With CCC(C)(C)NCC(O)c1ccc(N)c(C#N)c1 (stereo not given) the melting point was 143 °C. With CC(C)(C)c1cc(C(=NNc2ccccc2)c2ccccc2)cc(C(C)(C)C)c1O the melting point was 144 to 145 °C. Work on O=C1c2cc(OCCCl)ccc2-c2ccc(OCCCl)cc21 yielded a melting point of 135 to 139 °C. COc1ccc(CN(CCC(=O)O)c2nc(NC(=O)Nc3ccccc3OC)nc(Oc3ccc4ccccc4c3)n2)cc1 showed a melting point of 197 to 205 °C. Work on FC(F)(F)C1(c2cc(Cl)cc(Cl)c2)CC(c2ccc(-n3cncn3)cc2)=NO1 (stereo not given) yielded a melting point greater than 250 °C. In the case of O=C1C(=Cc2ccccc2)CS(=O)CC1=Cc1ccccc1 (stereo not given), the melting point was 155 to 160 °C. For CCC[C@H](NC(=O)CNC)C(=O)N[C@@H](CCCNC(=N)N)C(=O)N[C@@H](C)P(=O)(O)O, the melting point was 200 °C. Work on COc1ccc(CCC(=O)O)cc1C(=O)NCc1cccnc1 yielded a melting point of 175 to 176 °C. For NC(=O)/C=C1/c2cc(F)ccc2CC1Br (stereo not given), the melting point was 162 to 163 °C. Work on COC(=O)COc1cccnc1 yielded a melting point of 174 °C. With Cc1ccc(Cc2cc(C)c(C)c(=O)n2O)c(C)c1 the melting point was 141 °C. With Clc1ccc(-c2cnn3cnnc3n2)cc1 the melting point was greater than 300 °C. Work on O=[N+]([O-])c1cc2c(Nc3ccc(F)c(Cl)c3)ncnc2cc1OC1CCC1 yielded a melting point of 235 °C. COCCOc1cc2ncc(C#N)c(Nc3ccc(C)c(O)c3)c2cc1OC gave a melting point of 230 to 233 °C. O=[N+]([O-])c1cc(F)ccc1N1CCNCC1 showed a melting point of 85 to 87 °C. For Cc1cc(N)nc(CCc2nc3cc(-c4ccc(S(=O)(=O)N5CCN(C)CC5)cc4)cnc3[nH]2)c1, the melting point was 135 °C. In the case of CC(=O)c1cccc([C@H]2C[C@H]2NC(=O)Nc2ccc(Cl)cn2)c1 (racemic), the melting point was 144 to 145 °C. With CCOP(=O)(CSCCOn1cnc2c(N3C(=O)c4ccccc4C3=O)ncnc21)OCC the melting point was 115 to 116 °C. For CC(C)c1cc(N(C)C)cc2c1C(=O)N(COC(=O)c1c(Cl)cccc1Cl)S2(=O)=O, the melting point was 177 to 179 °C. N#CC1CN1C(=O)NC(=O)c1ccc(-c2ccccc2)cc1 (stereo not given) gave a melting point of 168 to 172 °C. Work on COc1ccc(C2(C)CCc3cc(OC)ccc3C2(O)C#CCCCCOC2CCCCO2)cc1 (stereo not given) yielded a melting point of 80 to 82 °C. With O=C(CCl)c1ccc(OCc2nnn[nH]2)cc1 the melting point was 194 to 196 °C. COc1cc2c(c(Cl)c1Cl)C(=O)C(C)(c1ccccc1)C2c1ccccc1 (stereo not given) showed a melting point of 197 to 207 °C. With O=C1CCCCCN1C(=O)N1CCCCCC1=O the melting point was 115 °C. c1ccc(-c2csc(-c3cnn4cccnc34)c2)cc1 gave a melting point of 72 to 72.5 °C. CCCc1c(OCCCOc2ccc3ccccc3c2)ccc2c1OC(CCC(=O)O)(CCC(=O)O)CC2=O showed a melting point of 158 °C. In the case of CC(C)CSc1ccc(N)c([N+](=O)[O-])c1, the melting point was 56.5 to 58.5 °C. CC(C)(C)N(Cc1ccccc1)CC(O)c1ccc(OCc2ccccc2)c(C(O)CO)c1 (stereo not given) gave a melting point of 148 to 149 °C. COC(=O)c1cc2ccc(C(=O)OC(C)(C)C)cc2[nH]1 showed a melting point of 189 to 190 °C. For Cc1cccc(-c2cc(O)c(Sc3ccccc3C(C)C)c(=O)o2)c1, the melting point was 161 to 162 °C. In the case of CCCC(=O)Nc1n[nH]c2cc(Cl)c(-c3ccc(CC)cc3)cc12, the melting point was 240 °C. With CN(C(=O)c1ccc(C(=O)C(C)(C)C)cc1)C(=O)c1ccc(C(=O)C(C)(C)C)cc1 the melting point was 122 °C. For CCCC[C@H](NC(=O)[C@@H](NC(=O)OCc1ccccc1)C(C)C)C(=O)CSCc1ccco1, the melting point was 115 to 116 °C. Work on CC(C)(C)c1cc2c(cc1O)OC(C(=O)O)=CO2 yielded a melting point of 144 °C. In the case of O=C(c1ccccc1)c1ccc2c(c1)C1(c3ccccc3-2)c2ccccc2-c2ccc(C(=O)c3ccccc3)cc21, the melting point was 260 to 261 °C.
